In paper PMC6152024 (Molecules : A Journal of Synthetic Chemistry and Natural …, 2017):
Where two headings read alike, the source gives them in different places.

Columns and labels:
[1] = cited from earlier work
[2] = In vivo pharmacokinetic study of DCCTX and Gom A in rats; settings: Sprague-Dawley, rat, plasma, iv, 300 mg/kg; for AUC(0-t): read-out: AUC0–8h; for MRT last: read-out: MRT0–8h
Description: Rats were randomly divided into five groups (groups 1−5, n = 6), respectively. To determine the short- and long-term effect of single-dose Gom A pretreatment on CYP3A metabolism of CTX, Gom A and CTX were administered to rats with different time intervals in groups 2−5. In brief, rats in group 1 (CTX alone group) were i.g. administered with saline (10 mL/kg, vehicle control), and rats in groups 2−5 were given Gom A (i.g.) at the dose of 20.8 mg/kg (50 μmol/kg). Rats in group 1 were intravenously (i.v.) administered with CTX (300 mg/kg) 0.5 h after saline administration. In groups 2–5, rats were given CTX (i.v.) 0.5, 6, 24 and 72 h after Gom A pretreatment, respectively. Mesna was injected (420 mg/kg, i.v.) 1 hour after CTX administration in all groups to prevent bladder injury in accordance with clinical practice.
Blood samples were collected from the postocular vein at 0.083, 0.25, 0.5, 1, 2, 3, 4, 6, 8, 12 and 24 h after CTX injection. Samples were transferred to heparin tubes and centrifuged at 5000 rpm for 15 min. Plasma was obtained and stored at −20 °C until required for further analysis.
UHPLC-MS/MS method (I): 6OH-Tes concentrations were analyzed according to the previous reports with slight modifications (Supplementary Figure S3). The terminated sample were centrifuged at 14,000 rpm for 10 min, 10 μL of each supernatant was injected into the UHPLC-MS/MS system for analysis. In general, an Agilent Elipse Plus 2.1 × 50 mm column packed with 1.8 µm C18 was applied. The column temperature was set as 30 °C at a flow rate of 0.3 mL/min. The mobile phase was consisted of aqueous 1% formic acid with the addition of 10 mM ammonium acetate solution (A) and methanol (B) with the gradient elution program set as follow: 5–50–80% B from 0–1–4 min. The ion transitions were m/z 305.0→269.0 for 6OH-Tes and m/z 181.0→111.0 for phenacetin (IS-I). UHPLC-MS method (II): DCCTX concentrations were determined using our previously developed UHPLC-MS/MS method (Supplementary Figure S4). For pharmacokinetic study, plasma samples were diluted 30-fold with plasma from drug-free rats. After vortexing for 2 min, 100 μL of each diluted sample was mixed with 400 μL acetonitrile (containing 6 ng/mL TNZ (IS-II), vortexed, and centrifuged at 14,000 rpm for 10 min. 100 μL supernatant of each sample was mixed with 400 μL aqueous solution containing 10% acetonitrile followed by a rough centrifugation. For HLMs inhibition study, samples were vortexed for 1 min after reaction termination, and the mixture was then centrifuged at 14,000 rpm for 10 min. After centrifugation, the obtained supernatant (5 μL) was injected into the UHPLC-MS/MS system, using methanol/10 mM ammonium acetate aqueous solution as the mobile phase at a flow rate of 0.25 mL/min. The ion transitions were set as m/z 199.2→78 for DCCTX and m/z 248.1→121.1 for TNZ (IS-II). UHPLC-MS/MS method (III): Gom A concentrations were determined using slightly modified LC/MS method which developed by our laboratory. Briefly, a 100 µL plasma sample was transferred to a 10 mL centrifuge tube with addition of 20 µL IS solution and 20 µL water/acetonitrile (90:10, v/v), vortexed for 30 s and then extracted using 3 mL methyl tertiary butyl ether. After extraction, the sample was centrifuged at 5000 rpm for 10 min. The organic layer was quantitatively transferred to a 5 mL glass tube and evaporated to dryness at 35 °C. Then the dried extract was reconstituted in 100 µL solvent (water–acetonitrile, 20:80, v/v) followed by injection of 10 µL aliquot into LC-MS/MS system. Separation was performed on a Zorbax SB-C18 reserved-phase column (100 mm × 2.1 mm i.d., 3.5 µm) with the mobile phase consisting of acetonitrile, methanol and water −0.1% formic acid (72:18:10, v/v/v) at a flow rate of 0.3 mL/min. The ion transitions were set as m/z 399→329 for Gom A and m/z 387.0→145.0 for bifendate (IS-III). […]

[3] = Group 1: CTX 300 mg/kg i.v. alone (saline 0.5 h before)
[4] = Group 2: CTX 300 mg/kg i.v. 0.5 h after Gom A 20.8 mg/kg i.g.
[5] = Group 3: CTX 300 mg/kg i.v. 6 h after Gom A 20.8 mg/kg i.g.
[6] = Group 4: CTX 300 mg/kg i.v. 24 h after Gom A 20.8 mg/kg i.g.
[7] = Group 5: CTX 300 mg/kg i.v. 72 h after Gom A 20.8 mg/kg i.g.

O=P1(N(CCCl)CCCl)NCCCO1 (stereo not drawn) [CTX, cyclophosphamide]
plasma protein binding rate [1]: approximately 9%

O=P1(NCCCl)NCCCO1 (stereo not drawn) [DCCTX, 2-dechloroethylcyclophosphamide]
Cmax [2, 3]: 8.6 ± 1.3 µg/mL
Tmax [2, 3]: 2 ± 0.1 h
half-life [2, 3]: 2.2 ± 0.5 h
AUC(0-t) [2, 3]: 32.5 ± 8.4 µg·h/mL
MRT last [2, 3]: 3.3 ± 0.2 h
Cmax [2, 4]: 1.9 ± 0.2 µg/mL
Tmax [2, 4]: 2.9 ± 0.6 h
half-life [2, 4]: 3.1 ± 0.9 h
AUC(0-t) [2, 4]: 8.9 ± 0.3 µg·h/mL
MRT last [2, 4]: 3.8 ± 0.2 h
Cmax [2, 5]: 2.6 ± 0.5 µg/mL
Tmax [2, 5]: 3.7 ± 0.8 h
half-life [2, 5]: 3.2 ± 0.8 h
AUC(0-t) [2, 5]: 11.8 ± 2.5 µg·h/mL
MRT last [2, 5]: 4.2 ± 0.1 h
Cmax [2, 6]: 16.2 ± 1.2 µg/mL
Tmax [2, 6]: 2 ± 0.1 h
half-life [2, 6]: 2 ± 0.4 h
AUC(0-t) [2, 6]: 65.9 ± 12.4 µg·h/mL
MRT last [2, 6]: 3.3 ± 0.2 h
Cmax [2, 7]: 20 ± 3.1 µg/mL
Tmax [2, 7]: 3.3 ± 0.5 h
half-life [2, 7]: 3.8 ± 1.2 h
AUC(0-t) [2, 7]: 79.2 ± 19.1 µg·h/mL
MRT last [2, 7]: 3.7 ± 0.2 h

C=CC[C@@H]1/C=C(\C)C[C@H](C)C[C@H](OC)[C@H]2O[C@@](O)(C(=O)C(=O)N3CCCC[C@H]3C(=O)O[C@H](/C(C)=C/[C@@H]3CC[C@@H](O)[C@H](OC)C3)[C@H](C)[C@@H](O)CC1=O)[C@H](C)C[C@@H]2OC [Tacrolimus]
plasma protein binding [1]: strongly bound to plasma protein
